Assay results: ChEMBL document CHEMBL1137228, “Benzoxepin-derived estrogen receptor modulators: a novel molecular scaffold for the estrogen receptor” (J Med Chem, 2004)

biological target: T1, Estrogen receptor (Homo sapiens, UniProt Q92731+P03372); test: Binding affinity for estrogen receptor of human breast carcinoma (MCF-7) cell line

Row | Ki | SMILES
1 | 3.2 µM | CN(C)CCOc1ccc(C2=C(c3ccccc3)CCOc3ccccc32)cc1

biological target: T1, Estrogen receptor; test: Inhibition of estrogen receptor positive human breast carcinoma (MCF-7) cell proliferation; format: functional

Row | IC50 | SMILES
2 | 11.1 µM | COc1ccc(C2=C(c3ccc(OCCN(C)C)cc3)c3ccccc3OCC2)cc1
3 | 15.7 µM | Cc1ccc(C2=C(c3ccc(OCCN(C)C)cc3)c3ccccc3OCC2)cc1
4 | 56.6 µM | COc1cccc(C2=C(c3ccc(OCCN(C)C)cc3)c3ccccc3OCC2)c1
5 | 11.7 µM | COc1ccccc1C1=C(c2ccc(OCCN(C)C)cc2)c2ccccc2OCC1
6 | 16.2 µM | CN(C)CCOc1ccc(C2=C(c3ccccc3)CCOc3ccccc32)cc1
7 | 7.6 µM | c1ccc(C2=C(c3ccc(OCCN4CCOCC4)cc3)c3ccccc3OCC2)cc1
8 | 74.3 µM | CN(C)CCOc1ccc(C2=C(c3ccc(C#N)cc3)CCOc3ccccc32)cc1
9 | 10.6 µM | c1ccc(C2=C(c3ccc(OCCN4CCCCC4)cc3)c3ccccc3OCC2)cc1
10 | 18.3 µM | CN(C)CCOc1ccc(C2=C(c3ccc(Cl)cc3)CCOc3ccccc32)cc1
11 | 33.6 µM | Cc1cccc(C2=C(c3ccc(OCCN(C)C)cc3)c3ccccc3OCC2)c1
12 | 14.2 µM | CCN(CC)CCOc1ccc(C2=C(c3ccccc3)CCOc3ccccc32)cc1
13 | 64.6 µM | CN(C)CCOc1ccc(C2=C(c3cccc([N+](=O)[O-])c3)CCOc3ccccc32)cc1
14 | 6.1 µM | c1ccc(C2=C(c3ccc(OCCN4CCCC4)cc3)c3ccccc3OCC2)cc1

biological target: T1, Estrogen receptor; test: Binding affinity for estrogen receptor of human breast carcinoma (MCF-7) cell line; 828 +/- 106 […]

Row | Ki | SMILES
15 | 0.828 µM | Cc1ccc(C2=C(c3ccc(OCCN(C)C)cc3)c3ccccc3OCC2)cc1
